Data from paper PMC5573151 (Clinical cancer research : an official journal of the …, 2009).

Molecular target: HLA-A2.1 (Homo sapiens, UniProt P04439, D140Y/D185E/D98H/E176V/E277Q/G131W/G231S/I119V/I121R/I166T/I218V/L300P/L318F/N151K/N90K/P208A/P217A/Q86G/Q94H/R138H/R169H/T345S)
Assay: MHC stabilization
Type: binding
Conditions: T2 cell assay

Sequence	Binding to A2.1 (in words)
SLYDSCYQI [SIM2(199)]	strongly bind
KLLPLPSAI [SIM2(25)]	strongly bind
